Data as given in article PMC4432651, “Dynamic interplay between catalytic and lectin domains of GalNAc-transferases modulates protein O-glycosylation” (Nature Communications, 2015).
Where a SMILES comes first, the peptide text is derived from it. The star is where a group is joined. αGalNAc = CC(=O)N[C@@H]1[C@@H](O)[C@@H](O)[C@@H](CO)O[C@@H]1*

Tests used:
GalNAc-T2 [1] = molecular target: T1, GalNAc-T2 (Homo sapiens, UniProt Q10471); assay: Time-lapse AFM of single GalNAc-T2 molecules with ligands; conditions: GalNAc-T2 2.0 nM on mica, PBS pH 7.4, 20 °C
T1 construct: made in house
Description: AFM measurements were performed using a MultiMode 8 AFM system (Bruker). […] Additional details are in Supplementary Methods. […]
simulations were performed with the acceptor amino acid – UDPGalNAc distance and the RMSD of the Cα peptide carbon atoms as collective variables.
The values of the height and width of the Gaussian-like biasing potential were selected as 1.0 kcal·mol -1 and 0.25 Å, respectively. A temperature window of ΔT = 25000 K for the well-tempered algorithm was used together with a deposition time of 1 ps. The simulation was continued until the system completely explored the free energy landscape several times which, in terms of the simulation time, corresponds to approximately 100 ns for each metadynamics run.
Atomic Force Microscopy Imaging
In Tapping Mode image operation the cantilever driven by a piezoelectric actuator vibrates near its resonance frequency. Upon approaching the sample, the tip briefly touches the surface at the bottom of each swing, resulting in a decrease in oscillation amplitude. […]
AFM scanning requires the sample be immobilized on a nanoflat surface not to be swept away. […] The concentration of the protein incubated on the mica sheets was suitable to get isolated features that could be analyzed individually. […]
GalNAc-T2 presents a net positive charge at the working pH conditions due to its theoretical isoelectric point of 8.3. The immobilization of enzymes on mica was previously evaluated observing clearly they preserve the enzymatic activity5.
To determine how the ligands affect the conformational dynamics of GalNAc-T2, the enzyme was also incubated with ligands for 10 min under mild stirring at room temperature. […] AFM images were further analyzed by using the WSxM software6. […] At least 10 images of 10 different areas of 500 nm2 were analyzed for every sample and environment. Furthermore, each feature or associate was analyzed in detail with the zoom function of the WSxM program, performed without losing image information and or the discarding of artifacts. […]

GalNAc-T2 [2] = molecular target: T1, GalNAc-T2; assay: X-ray crystal structures of GalNAc-T2 complexes; assay type: binding; for Rg of crystal complex: values in Å
Description: In all cases, crystals were grown by hanging drop vapour diffusion at 18 °C. […] The protein solution consisting of 3.5 mg ml^−1 of GalNAcT-2, 5 mM UDP, 5 mM MnCl2 and 6 mM MUC5AC-13 in the same buffer described above was mixed with the precipitant solution containing 1.6 M ammonium sulfate, 100 mM sodium chloride and 100 mM HEPES (pH 7). The crystals were cryoprotected in saturated lithium sulfate and frozen in a nitrogen gas stream cooled to 100 K.
All data were processed and scaled using the XDS package[34] and CCP4 software. The crystal structures were solved by molecular replacement with Phaser[35] and using the PDB entry 4D0T as the template. Initial phases were further improved by cycles of manual model building in Coot[36] and refinement with REFMAC5 (ref. [37]). The AUs of the tetragonal crystals contain 1 molecule of GalNAc-T2 (Fig. 1). Coordinates and structure factors have been deposited in the Worldwide Protein Data Bank (wwPDB, and see Table 1 for the pdb codes).

GalNAc-T2 [3] = molecular target: T1, GalNAc-T2; conditions: cited from earlier work
Text: Among other conclusions it was reported that the glycosylation ...

T1 sequence (Q10471 75-571 limits assumed): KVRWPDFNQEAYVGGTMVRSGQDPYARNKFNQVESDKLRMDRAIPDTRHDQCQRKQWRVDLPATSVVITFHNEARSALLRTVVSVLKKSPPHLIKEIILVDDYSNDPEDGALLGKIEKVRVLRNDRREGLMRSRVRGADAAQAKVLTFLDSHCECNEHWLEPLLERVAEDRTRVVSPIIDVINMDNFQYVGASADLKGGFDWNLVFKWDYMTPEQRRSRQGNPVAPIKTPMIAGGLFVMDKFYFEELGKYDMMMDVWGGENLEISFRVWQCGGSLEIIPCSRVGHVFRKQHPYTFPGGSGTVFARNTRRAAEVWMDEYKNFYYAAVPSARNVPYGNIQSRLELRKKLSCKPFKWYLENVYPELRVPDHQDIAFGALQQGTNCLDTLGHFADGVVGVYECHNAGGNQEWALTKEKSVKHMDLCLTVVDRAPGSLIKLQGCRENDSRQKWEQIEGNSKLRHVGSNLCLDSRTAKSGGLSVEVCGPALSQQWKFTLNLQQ

SMILES | conformational states of GalNAc-T2 observed (GalNAc-T2 [1]; peptide alone or in combination with UDP/Mn+2, peptides 10.0 nM) | Rg of crystal complex (GalNAc-T2 [2]; GalNAc-T2-UDP-MUC5AC-13 complex) [Å] | form of GalNAc-T2 bound in crystal (GalNAc-T2 [2]; co-crystallization with UDP and Mn+2, flexible loop conformation) | optimal glycosylation site (GalNAc-T2 [3]; prior glycosylated site Thr13, ref 1 (supplement)) | glycosylation of further sites Ser5 and Thr9 (GalNAc-T2 [3]; ref 1 (supplement)) | conformational states of GalNAc-T2 observed (GalNAc-T2 [1]; in the presence of Mn+2, UDP, UDP-GalNAc and MnCl2 20.0 nM)
CC(=O)NCC(=O)N[C@H](C(=O)N[C@H](C(=O)N1CCC[C@H]1C(=O)N[C@@H](CO)C(=O)N1CCC[C@H]1C(=O)N[C@H](C(=O)N1CCC[C@H]1C(=O)N[C@H](C(=O)N[C@H](C(=O)N[C@@H](CO)C(=O)N[C@H](C(=O)N[C@H](C(=O)N[C@@H](CO)C(=O)N[C@@H](C)C(N)=O)[C@@H](C)O[C@H]1O[C@H](CO)[C@H](O)[C@H](O)[C@H]1NC(C)=O)[C@@H](C)O)[C@@H](C)O)[C@@H](C)O)C(C)C)[C@@H](C)O)[C@@H](C)O [MUC5AC-13] (Ac-GTTPSPVPTTSTT(αGalNAc)SA-NH2; N-terminus assumed) | three different conformational states are present | 26.41 | bound to an active form of GalNAc-T2 | optimally 10 residues N-terminal (Thr3) | not in an efficient manner | –
O=c1ccn([C@@H]2O[C@H](COP(=O)(O)OP(=O)(O)O)[C@@H](O)[C@H]2O)c(=O)[nH]1 [UDP, uridine diphosphate, reference compound] | – | – | – | – | – | either the very compact or the compact structure
